Experiments:
sGC α1/β1 heterodimer = sGC α1/β1 heterodimer (Homo sapiens (Human), UniProt Q02108+Q02153); assay: Cell-based sGC functional assay (CASA assay), cGMP by HTRF; settings: CHO-K1/sGC cells; for Emax: CHO-K1, cGMP production as percentage of maximum of compound A (set to 100%), read-out: % Activation; for EC50: inflection point of cGMP production, 4P fit, read-out: IP
Text: Cell-Based sGC Functional Assay (Cyclic GMP Assay for sGC Activator: CASA Assay)
Soluble guanylate cyclase (sGC) is a heme-containing enzyme that converts GTP to secondary messenger cGMP. Increases in cGMP levels affect several physiological processes including vasorelaxation through multiple downstream pathways. […] Heme-dependent activators (HDAs) preferentially target sGC containing a ferrous heme group. To determine the effect of sGC activators on enzyme activity, the CASA assay was developed to monitor the generation of cGMP in a cell line that stably expresses the heterodimeric sGC protein.
A CHO-K1 cell line stably expressing the sGC α1/β1 heterodimer was generated using a standard transfection protocol. The cDNA's encoding human sGC α1 and β1 were cloned in pIRES hyg and pIRES neo respectively using standard molecular biology techniques. The plasmids pIRES hyg and pIRES neo plasmids were obtained from Clontech. CHO-K1 cells were transfected with plasmids pIREShyg-hsGCα1 and pIRESneo-hsGCβ1 simultaneously using FUGENE reagent. Clones that stably express both subunits were selected with hygromycin and neomycin for ˜2 weeks. The clone chosen for the assay was designated CHO-K1/sGC. CHO-K1/sGC cells were maintained in F-K12 medium containing 10% heat-inactivated Fetal Bovine Serum (FBS), 100 μg/mL penicillin/streptomycin, 0.5 mg/mL hygromycin and 0.25 mg/mL G418. The cells were then cryopreserved in liquid nitrogen. On the day of the assay, the cells were thawed and resuspended in EBSS Assay Buffer (Sigma, E3024) supplemented with 5 mM MgCl2, 10 mM HEPES (4-(2-hydroxyethyl)piperazine-1-ethanesulfonic acid) and 0.05% BSA (bovine serum albumin) and cell density was then adjusted to 2.25×10^5/mL with EAB. IBMX (3-isobutyl-1-methylxanthin, 0.5 mM) was added to inhibit degradation of cGMP. Compounds were diluted from DMSO stock solutions and added to the assay at a final DMSO concentration of 2.5%. Cells were pre-incubated in the presence and absence of 1 μM of Diethylenetriamine/nitric oxide adduct (DETA-NO; Sigma, 17018) for 30 min at 25° C. Compounds were subsequently added and incubated for 1 hr at 37° C. At the end of the incubation period, the reaction was terminated and the cells were lysed with the detection reagents from Cisbio Kits. The level of intracellular cGMP was determined using an HTRF-based assay kit (CisBio, 62GM2PEC), which detects the displacement of a fluorescence labeled cGMP from its specific antibody. The cGMP produced by test compounds was directly compared to the maximum cGMP production (this value was set to equal 100% activation) of the published sGC compound A (Example 1 in WO 2010/065275, published Jun. 10, 2010).
The test compounds' activities were then expressed as a percentage of compound A, the standard in every experiment. This percent activation was calculated either in the presence or absence of DETA-NO which was then plotted. Inflection points (IP) and maximum fold induction was derived using Abase analysis software for 4P fit.

[1] = target: human recombinant sGC enzyme (Homo sapiens (Human), UniProt Q02108+Q02153); assay: SEC competition binding assay with [3H] Compound B radioligand; settings: displacement of 1.6 nM [3H] Compound B, 24 h at 37° C.
Method: The binding potencies of sGC compounds to the human recombinant sGC enzyme were determined in a Size Exclusion Chromatography (SEC) competition binding assay using [^3H] Compound B as the radioligand. [^3H] Compound B was prepared using a standardardized tritium exchange procedure. The parent (non-labeled) molecule was first iodinated then a Pd-catalyzed iodine to tritium exchange provided the labeled compound.
Method: The binding buffer was composed of 50 mM triethanolamine pH 7.4, 3 mM MgCl2, 0.025% BSA, 2 mM dithiothreitol (DTT), 300 μM DETA/NO and 400 μM GTP. Assays were conducted in 96-well plates in a total volume of 200 μL. Recombinant human sGC protein (40 ng) was incubated with 1.6 nM [^3H] Compound B for 24 h at 37° C. in the presence and absence of various concentrations of sGC testing compounds delivered as DMSO solutions to give a total of 1% organic solvent content. Non-specific binding was defined by competition with 1 μM of Compound B. After the incubation period, the binding mixtures were loaded onto the gel-filtration plate (ThermoFischer Cat. No. 89808) pre-equilibrated with binding buffer and spun at 1000×g for 3 min at 4° C. on a Bench top centrifuge. The collected eluates in White Frame Clear Well Isoplates (Perkin Elmer Cat #6005040) received 100 μl of UltimaGold scintillation cocktail. The sealed plates were shaken vigorously and span, and counted after 6 hs with a Wallac Microbeta TriLux 1450 LSC & Luminescence Counter (Perkin Elmer). Data from competition experiments were analyzed to determine Ki values using one site—fit Ki equation.

Emax (sGC α1/β1 heterodimer) [%] | EC50 (sGC α1/β1 heterodimer) [nM] | Ki [1] [nM] | SMILES
99 | 744 | 2.63 | CC1(c2ccc(Cl)c(O)c2)C(=O)Nc2nc(-c3cn4ncnc4c(CCC(F)(F)C(F)(F)F)n3)nc(N3CCC(C(F)(F)F)CC3)c21 (stereo not drawn) [Example 137-A, 5-(4-Chloro-3-hydroxy-phenyl)-5-methyl-2-(8-(3,3,4,4,4-pentafluoro-butyl)-[1,2,4]triazolo-[1,5-a]pyrazin-6-yl)-4-(4-(trifluoromethyl)-piperidin-1-yl)-5,7-dihydro-6H-pyrrolo-[2,3-d]pyrimidin-6-one]
75 | 681 | 2.76 | CC(C)CCc1nc(-c2nc(N)c3c(n2)NC(=O)C3(C)c2cc(O)ccn2)cn2ncnc12 (stereo not drawn) [Example 119-B, 4-Amino-5-(4-hydroxypyridin-2-yl)-2-(8-isopentyl-[1,2,4]-triazolo[1,5-a]pyrazin-6-yl)-5-methyl-5,7-dihydro-6H-pyrrolo-[2,3-d]pyrimidin-6-one]
88 | 368 | 0.479 | CC1(c2cc(O)c(Cl)cn2)C(=O)Nc2nc(-c3cn4ccnc4c(Cc4cc(F)cc(F)c4)n3)nc(N)c21 (stereo not drawn) [Example 40-B, 4-Amino-5-(5-chloro-4-hydroxypyridin-2-yl)-2-{8-[(3,5-difluorophenyl)methyl]imidazo[1,2-a]pyrazin-6-yl}-5-methyl-5,7-dihydro-6H-pyrrolo[2,3-d]pyrimidin-6-one]
97 | 49 | 2.21 | CCCCc1nc(-c2nc(N)c3c(n2)NC(=O)C3(C)c2ccc(F)c(O)c2)cn2ncnc12 (stereo not drawn) [Example 62-B, 4-Amino-2-(8-butyl-[1,2,4]triazolo[1,5-a]pyrazin-6-yl)-5-(4-fluoro-3-hydroxyphenyl)-5-methyl-5,7-dihydro-6H-pyrrolo[2,3-d]pyrimidin-6-one]
113 | 188 | 0.091 | CC1(c2cc(O)c(Cl)c(F)c2)C(=O)Nc2nc(-c3cn4ccnc4c(Cc4cccc(F)c4)n3)nc(N)c21 (stereo not drawn) [Example 5-B, 4-Amino-5-(4-chloro-3-fluoro-5-hydroxyphenyl)-2-{8-[(3-fluorophenyl)methyl]imidazo[1,2-a]pyrazin-6-yl}-5-methyl-5,7-dihydro-6H-pyrrolo[2,3-d]pyrimidin-6-one]
111 | 243 | 0.317 | CC1(c2cccc(O)c2)C(=O)Nc2nc(-c3cn4ccnc4c(Cc4ccc(F)cc4F)n3)nc(N)c21 (stereo not drawn) [Example 34-B, 4-Amino-2-{8-[(2,4-difluorophenyl)methyl]imidazo[1,2-a]pyrazin-6-yl}-5-(3-hydroxyphenyl)-5-methyl-5,7-dihydro-6H-pyrrolo[2,3-d]pyrimidin-6-one]
73 | 382 | 0.118 | CC1(c2cc(O)c(C#N)c(F)c2)C(=O)Nc2nc(-c3cn4ccnc4c(Cc4cc(F)cc(F)c4F)n3)nc(N)c21 (stereo not drawn) [Example 102-B, 4-(4-Amino-5-methyl-6-oxo-2-{8-[(2,3,5-trifluorophenyl)methyl]imidazo[1,2-a]pyrazin-6-yl}-6,7-dihydro-5H-pyrro1o[2,3-d]pyrimidin-5-yl)-2-fluoro-6-hydroxybenzonitrile]
164 | 601 | 0.508 | CC1(c2ccc(O)c(F)c2)C(=O)Nc2nc(-c3cn4ccnc4c(Cc4cccc(F)c4)n3)nc(N)c21 (stereo not drawn) [Example 125-B, 4-Amino-5-(3-fluoro-4-hydroxyphenyl)-2-{8-[(3-fluorophenyl)methyl]-imidazo[1,2-a]pyrazin-6-yl}-5-methyl-5,7-dihydro-6H-pyrrolo[2,3-d]-pyrimidin-6-one]
99 | 746 | 1.21 | CC1(c2ccc(Cl)c(O)c2)C(=O)Nc2nc(-c3cn4ccnc4c(Cc4ccc(F)cc4)n3)nc(NCC(O)C(F)(F)F)c21 (single isomer, unassigned) [Example 132-AA, 5-(4-Chloro-3-hydroxy-phenyl)-2-{8-[(4-fluoro-phenyl)methyl]imidazo-[1,2-a]pyrazin-6-yl}-5-methyl-4-[(3,3,3-trifluoro-2-hydroxy-propyl)amino]-5,7-dihydro-6H-pyrrolo-[2,3-d]-pyrimidin-6-one]
107 | 768 | 0.372 | CC1(c2cccc(O)c2)C(=O)Nc2nc(-c3cn4ccnc4c(Cc4ccccc4)n3)nc(N)c21 (stereo not drawn) [Example 123-B, 4-Amino-2-(8-benzyl-imidaxol[1,2-a]pyrazin-6-yl)-5-(3-hydroxyphenyl)-5-methyl-5,7-dihydro-6H-pyrrolo[2,3-d]pyrimidin-6-one]
85 | 797 | 2.26 | CC1(c2ccc(Cl)c(O)c2)C(=O)Nc2nc(-c3cn4ccnc4c(CCC(F)(F)C(F)(F)F)n3)nc(N)c21 (stereo not drawn) [Example 65-A, 4-Amino-5-(4-chloro-3-hydroxyphenyl)-5-methyl-2-(8-(3,3,4,4,4-pentafluorobutyl)imidazo[1,2-a]pyrazin-6-yl)-5,7-dihydro-6H-pyrrolo[2,3-d]pyrimidin-6-one]
88 | 752 | 0.241 | CC1(c2ccc(O)c(F)c2)C(=O)Nc2nc(-c3cn4ccnc4c(Cc4ccccc4F)n3)nc(N)c21 (stereo not drawn) [Example 24-B, 4-Amino-5-(3-fluoro-4-hydroxyphenyl)-2-{8-[(2-fluorophenyl)methyl]imidazo[1,2-a]pyrazin-6-yl}-5-methyl-5,7-dihydro-6H-pyrrolo[2,3-d]pyrimidin-6-one]
130 | 127 | 0.173 | CC1(c2ccc(Cl)c(O)c2)C(=O)Nc2nc(-c3cn4ccnc4c(Cc4ccc(F)c(F)c4)n3)nc(N)c21 (stereo not drawn) [Example 20-A, 4-Amino-5-(4-chloro-3-hydroxyphenyl)-2-{8-[(3,4-difluorophenyl)methyl]imidazo[1,2-a]pyrazin-6-yl}-5-methyl-5,7-dihydro-6H-pyrrolo[2,3-d]pyrimidin-6-one]
81 | 32 | 3.96 | CCCCc1nc(-c2nc(N)c3c(n2)NC(=O)C3(C)c2ccc(O)cc2)cn2ncnc12 (stereo not drawn) [Example 70-B, 4-Amino-2-(8-butyl-[1,2,4]triazolo[1,5-a]pyrazin-6-yl)-5-(4-hydroxyphenyl)-5-methyl-5,7-dihydro-6H-pyrrolo[2,3-d]pyrimidin-6-one]
81 | 1920 | 7.15 | CC1(c2ccc(O)c(F)c2)C(=O)Nc2nc(-c3cn4ccnc4c(CCC(F)(F)C(F)(F)F)n3)nc(N3CC(O)(C(F)(F)F)C3)c21 (stereo not drawn) [Example 130-A, 5-(3-Fluoro-4-hydroxyphenyl)-4-(3-hydroxy-3-(trifluoromethyl)azetidin-1-yl)-5-methyl-2-(8-(3,3,4,4,4-pentafluorobutyl)imidazo[1,2-a]pyrazin-6-yl)-5,7-dihydro-6H-pyrrolo[2,3-d]pyrimidin-6-one]
